Experiments:
Assay in all cases: MTS assay, inhibition of cell growth
Type in all cases: cell-based
NCI-H1299 cells = conditions: Homo sapiens, compound at 10 μM, 72 hours
Experimental: (§1) MDA-MB-231, DLD-1, Kato III NCI-H1299, PACA-2 cells, were maintained at 37° C., 5% CO2 in DMEM media supplemented with 10% fetal bovine serum, penicillin/streptomycin and fungizone (Invitrogen). Cells were seeded into 96-well tissue culture plates at 3000 per well and cultured at 37° C. for 18 hours. Test compounds were dissolved and diluted to 300× in DMSO then further diluted 1:40 in DMEM before addition to cells (1:7.5 dilution). Cells were incubated with test compounds for 72 hours followed by incubation with tetrazolium compound (3-(4,5-dimethylthiazol-2-yl)-5-(3-carboxymethoxyphenyl)-2-(4-sulfophenyl)-2H-tetrazolium, inner salt; MTS) and the electron coupling reagent, phenazine methosulfate (PMS) for 4 hours. […] The ability of compounds to inhibit cell growth in this assay is correlated with the reduction of dehydrogenase enzyme activity found in metabolically active cells. The measurement of the absorbance of the formazan was assessed using an ENVISION™ (Perkin Elmer) microplate reader at 492 nm.

MDA-MB-231 cells = conditions: Homo sapiens, compound at 10 μM, 72 hours
Experimental: as §1

PACA-2 cells = conditions: compound at 10 μM, 72 hours
Experimental: as §1

Kato III cells = conditions: Homo sapiens, compound at 10 μM, 72 hours
Experimental: as §1

DLD-1 cells = conditions: Homo sapiens, compound at 10 μM, 72 hours
Experimental: as §1

Structure (SMILES)	inhibition at 10 µM (NCI-H1299 cells) [%]	inhibition at 10 µM (MDA-MB-231 cells) [%]	inhibition at 10 µM (PACA-2 cells) [%]	inhibition at 10 µM (Kato III cells) [%]	inhibition at 10 µM (DLD-1 cells) [%]
O=S(=O)(c1cccs1)N1CCc2c(cnc3[nH]ncc23)C1 [7-(2-thienylsulfonyl)-6,7,8,9-tetrahydro-3H-pyrazolo[3,4-c][2,7]naphthyridine]	75 to 100	75 to 100	75 to 100	75 to 100	75 to 100
CS(=O)(=O)N1CCc2c(cnc3[nH]ncc23)C1 [7-(methylsulfonyl)-6,7,8,9-tetrahydro-3H-pyrazolo[3,4-c][2,7]naphthyridine]	75 to 100	75 to 100	75 to 100	75 to 100	75 to 100
COc1ccc(S(=O)(=O)N2CCc3c(cnc4[nH]ncc34)C2)cc1OC [7-[(3,4-dimethoxyphenyl)sulfonyl]-6,7,8,9-tetrahydro-3H-pyrazolo[3,4-c][2,7]napthyridine]	75 to 100	75 to 100	75 to 100	75 to 100	75 to 100
COc1ccc(CN2CCN(C(=O)N3CCc4c(cnc5[nH]ncc45)C3)CC2)cc1 [7-{[4-(4-methoxybenzyl)piperazin-1-yl]carbonyl}-6,7,8,9-tetrahydro-3H-pyrazolo[3,4-c][2,7]naphthyridine]	< 24	75 to 100	75 to 100	75 to 100	75 to 100
Clc1ccccc1CN1CCN(c2ncc3c(n2)CCc2cnc4[nH]ncc4c2-3)CC1 [9-[4-(2-chlorobenzyl)piperazin-1-yl]-6,7-dihydro-3H-pyrazolo[4′3′:5,6]pyrido[4,3-f]quinazoline]	75 to 100	75 to 100	75 to 100	75 to 100	75 to 100
CN(C)CCNC(C(=O)N1CCc2c(cnc3[nH]nc(-c4ccccc4)c23)C1)c1ccccc1 (stereo not shown) [N,N-dimethyl-N′-[2-oxo-1-phenyl-2-(1-phenyl-3,6,8,9-tetrahydro-7H-pyrazolo[3,4-c][2,7]napthyridin-7-yl)ethyl]ethane-1,2-diamine]	75 to 100	75 to 100	75 to 100	75 to 100	75 to 100
O=C(NCCc1cccc(Cl)c1)c1cccc(NC(=O)N2CCc3c(cnc4[nH]ncc34)C2)c1 [N-(3-{[2-(3-chlorophenyl)ethyl]carbamoyl}phenyl)-3,6,8,9-tetrahydro-7H-pyrazolo[3,4-c][2,7]naphthyridine-7-carboxamide]	25 to 49	75 to 100	75 to 100	75 to 100	75 to 100
c1nc2[nH]ncc2c2c1CCc1nc(NCC3CCCCCC3)ncc1-2 [N-(cycloheptylmethyl)-6,7-dihydro-3H-pyrazolo[4′,3′:5,6]pyrido[4,3-f]quinazolin-9-amine]	75 to 100	75 to 100	75 to 100	75 to 100	75 to 100
O=C(NCC1CCCCC1)N1CCc2c(cnc3[nH]ncc23)C1 [N-(cyclohexylmethyl)-3,6,8,9-tetrahydro-7H-pyrazolo[3,4-c][2,7]naphthyridine-7-carboxamide]	75 to 100	75 to 100	75 to 100	75 to 100	75 to 100
FC(F)(F)c1cccc(CNc2ncc3c(n2)CCc2cnc4[nH]ncc4c2-3)c1 [N-[3-(trifluoromethyl)benzyl]-6,7-dihydro-3H-pyrazolo[4′,3′:5,6]pyrido[4,3-f]quinazolin-9-amine]	75 to 100	75 to 100	75 to 100	75 to 100	75 to 100
CN(C)c1ccc(NC(=O)N2CCc3c(cnc4[nH]ncc34)C2)cc1 [N-[4-(dimethylamino)phenyl]-3,6,8,9-tetrahydro-7H-pyrazolo[3,4-c][2,7]naphthyridine-7-carboxamide]	75 to 100	75 to 100	75 to 100	75 to 100	75 to 100
O=C(Nc1ccccc1)N1CCc2c(cnc3[nH]nc(-c4cccc(C(F)(F)F)c4)c23)C1 [N-phenyl-1-[3-(trifluoromethyl)phenyl]-3,6,8,9-tetrahydro-7H-pyrazolo[3,4-c][2,7]naphthyridine-7-carboxamide]	75 to 100	75 to 100	75 to 100	75 to 100	75 to 100
CC(C)(C)NC1CCc2c(cnc3[nH]ncc23)C1 (stereo not shown) [N-tert-butyl-6,7,8,9-tetrahydro-3H-pyrazolo[3,4-c]isoquinolin-7-amine]	75 to 100	75 to 100	75 to 100	75 to 100	75 to 100
O=C(NCCN1CCOCC1)c1cccc(NC(=O)N2CCc3c(cnc4[nH]ncc34)C2)c1 [N-{3-[(2-morpholin-4-ylethyl)carbamoyl]phenyl}-3,6,8,9-tetrahydro-7H-pyrazolo[3,4-c][2,7]napthyridine-7-carboxamide]	75 to 100	75 to 100	75 to 100	75 to 100	75 to 100
Fc1ccc(C2Cc3cnc4[nH]ncc4c3-c3ccccc32)cc1 (stereo not shown) [drawing 558, 7-(4-fluorophenyl)-6,7-dihydro-3H-benzo[f]pyrazolo[3,4-c]isoquinoline]	25 to 49	75 to 100	75 to 100	50 to 74	75 to 100
O=S(=O)(NC1CCc2c(cnc3[nH]ncc23)C1)c1ccccc1 (stereo not shown) [drawing 563, N-(6,7,8,9-tetrahydro-3H-pyrazolo[3,4-c]isoquinolin-7-yl)benzenesulfonamide]	25 to 49	75 to 100	75 to 100	75 to 100	75 to 100
CC(C)(C)OC(=O)N1CCc2c(cnc3[nH]ncc23)C1 [drawing 579, tert-butyl 3,6,8,9-tetrahydro-7H-pyrazolo[3,4-c][2,7]naphthyridine-7-carboxylate]	75 to 100	75 to 100	75 to 100	75 to 100	75 to 100
Cc1nc(-c2cccc(NC(=O)N3CCc4c(cnc5[nH]nc(Br)c45)C3)c2)cs1 [drawing 580, 1-bromo-N-[3-(2-methyl-1,3-thiazol-4-yl)phenyl]-3,6,8,9-tetrahydro-7H-pyrazolo[3,4-c][2,7]naphthyridine-7-carboxamide]	50 to 74	< 24	25 to 49	75 to 100	75 to 100
O=C(c1ccccc1)c1c[nH]c2ncnc(N3CCc4c(cnc5[nH]nc(Br)c45)C3)c12 [drawing 582]	75 to 100	50 to 74	75 to 100	75 to 100	50 to 74
CC(C)(C)OC(=O)N1CCc2c(cnc3[nH]nc(Br)c23)C1 [drawing 588, tert-butyl 1-bromo-3,6,8,9-tetrahydro-7H-pyrazolo[3,4-c][2,7]naphthyridine--7-carboxylate]	75 to 100	75 to 100	75 to 100	75 to 100	75 to 100
